The nature of data set [1]: Odor threshold and odor value of perfuming compounds (Tables 4 to 10).
A short description of data set [2]: Volatility of perfuming compounds (Tables 4 to 10), with top/middle/bottom note type. Format: physicochemical. Put shortly: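 Volatility is expressed in μg/l in air. Top notes are 70,000 to 100 μg/l, middle notes 99 to 50 μg/l, and bottom notes 49 to 0.1 μg/l. Compounds are grouped by olfactive family: watery, green, fruity, citrus, sweet, gourmand and woody.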

The mark [3] stands for this setting: Table 10, perfuming compounds having a woody note, note type by volatility.
Where [4] appears, read: Table 7, citrus note, equals volatility divided by odor threshold.
The mark [5] stands for this setting: perfuming compounds having a green note.
The mark [6] stands for this setting: Table 6, perfuming compounds having a fruity note.
The mark [7] stands for this setting: Table 6, perfuming compounds having a fruity note, note type by volatility.
Where [8] appears, read: Table 7, citrus note, top, middle or bottom note.
[9] abbreviates: note type (Top/Middle/Bottom) by volatility, perfuming compounds having a green note.
Where [10] appears, read: Table 8, perfuming compounds having a sweet note.

As for `CC(=O)/C=C/C1=C(C)CCCC1(C)C` [(3E)-4-(2,6,6-trimethyl-1-cyclohexen-1-yl)-3-buten-2-one], the “Odor Threshold” value in data set [1] (Table 10, woody note) is 3.58E−05 μg/l air. In addition, the Type entry in data set [2] (setting [3]) is “Bottom”. The compound also registered a Volatility in data set [2] (Table 10, woody note) of 35.41 μg/l air.
As for `CCC/C=C/C=O` [(2E)-2-HEXENAL], the “Odor Threshold (μg/l air)” value in data set [1] (Table 7, citrus note) was 2.53E−03 μg/l air; in data set [1] (setting [5]), 2.53E−03 μg/l air. The “Odor Value” in data set [1] (setting [4]) turned out to be 1.33E+07. The Volatility in data set [2] (setting [6]) was determined as 33708.26 μg/l air. For the same compound, the Type result in data set [2] (setting [7]) is “TOP (perfuming compounds having a volatility ranging from 70,000 to 100 μg/l in air are referred to as “top notes”)”; in data set [2] (setting [8]) it was “Top”; in data set [2] (setting [9]), “Top”. For the same compound, the “Volatility (μg/l air)” value in data set [2] (Table 7, citrus note) was determined as 33708.26 μg/l air; in data set [2] (setting [5]), 33708.26 μg/l air.
Turning to `CCC(CC(C)CC)=NO` (stereo not shown) [5-METHYL-3-HEPTANONE OXIME], the “Odor Threshold” value in data set [1] (setting [6]) and in data set [1] (setting [10]) was 8.80E−03 μg/l air throughout. Moreover, the “Odor Value” in data set [1] (setting [6]) and in data set [1] (setting [10]) was 1.45E+04 in each case. In addition, in data set [1] (setting [5]), the “Odor Threshold (μg/l air)” value came to 8.80E−03 μg/l air. Moreover, the Volatility in data set [2] (setting [6]) and in data set [2] (setting [10]) was 128.04 μg/l air in each case. Further, the Type result in data set [2] (setting [7]) is given as “TOP (perfuming compounds having a volatility ranging from 70,000 to 100 μg/l in air are referred to as “top notes”)”; in data set [2] (Table 8, perfuming compounds having a sweet note, note type by volatility), “Top”; in data set [2] (setting [9]), “Top”. In addition, in data set [2] (setting [5]), the “Volatility (μg/l air)” value was 128.04 μg/l air.
On to `CC(C)(O)CCC1CCCCC1` [4-CYCLOHEXYL-2-METHYL-2-BUTANOL], for which the “Odor Threshold” value in data set [1] (setting [6]) is 2.83E−02 μg/l air. Further, the “Odor Value” in data set [1] (setting [6]) and in data set [1] (setting [4]) was 2.81E+03 throughout. The “Odor Threshold (μg/l air)” value in data set [1] (Table 7, citrus note) is reported as 2.83E−02 μg/l air. The same compound showed a Volatility in data set [2] (setting [6]) of 79.34 μg/l air. In addition, the Type result in data set [2] (setting [7]) and in data set [2] (setting [8]) was “Middle” each time. Further, in data set [2] (Table 7, citrus note), the “Volatility (μg/l air)” value was determined as 79.34 μg/l air.
As for `CC1CCCC2(C)CCCCC12O` (racemic), the “Odor Threshold (μg/l air)” value in data set [1] (setting [5]) worked out at 5.32E−06 μg/l air. Further, the Type result in data set [2] (setting [9]) is “Top”. Besides, the “Volatility (μg/l air)” value in data set [2] (setting [5]) came to 330.48 μg/l air.
In the case of `CO[C@]1(C)CC[C@@]23C[C@@H]1C(C)(C)[C@@H]2CC[C@H]3C` (racemic) [(+−)-8-methoxycedrane], the “Odor Threshold” value in data set [1] (Table 10, woody note) is 2.09E−02 μg/l air. Also, in data set [2] (setting [3]), the Type entry is on record as “Bottom”. In data set [2] (Table 10, woody note), this compound came in with a Volatility of 42.22 μg/l air.
With `C[C@@H]1CC[C@@H](C(C)(C)S)C(=O)C1` [(1R,4R)-8-MERCAPTO-3-P-MENTHANONE], the “Odor Threshold (μg/l air)” value in data set [1] (setting [5]) is listed as 3.43E−05 μg/l air. In data set [2] (setting [6]), this compound registered a Volatility of 155.12 μg/l air. Besides, the Type entry is “TOP (perfuming compounds having a volatility ranging from 70,000 to 100 μg/l in air are referred to as “top notes”)” in data set [2] (setting [7]) and “Top” in data set [2] (setting [9]). Moreover, the “Volatility (μg/l air)” value in data set [2] (setting [5]) is 155.12 μg/l air.
On to CITRONELLOL (A) + GERANIOL (B), for which, in data set [1] (Table 7, citrus note), the “Odor Threshold (μg/l air)” value is reported as 7.69E−04 μg/l air. The “Volatility (μg/l air)” value in data set [2] (Table 7, citrus note) came out at 89.88 μg/l air. The Type result in data set [2] (setting [8]) is “Middle”.
Regarding `CC(C)[C@@H]1CC[C@@H](C)CC1=NO`, the “Odor Threshold (μg/l air)” value in data set [1] (setting [5]) is listed as 5.52E−05 μg/l air. Further, the Type result in data set [2] (setting [9]) is on record as “Bottom”. Further, the “Volatility (μg/l air)” value in data set [2] (setting [5]) is recorded as 22.29 μg/l air.
Consider `CCOC(=O)CC(C)=O`, for which the “Odor Threshold (μg/l air)” value in data set [1] (setting [5]) is reported as 5.83E−02 μg/l air. This compound also yielded a Volatility in data set [2] (setting [6]) of 2885.67 μg/l air. In addition, the Type entry is on record as “TOP (perfuming compounds having a volatility ranging from 70,000 to 100 μg/l in air are referred to as “top notes”)” in data set [2] (setting [7]) and “Top” in data set [2] (setting [9]). Also, the “Volatility (μg/l air)” value in data set [2] (setting [5]) came to 2885.67 μg/l air.
On to `CC1(CO)CC1CC1CC2CC2(C)C1(C)C` (stereo not shown), for which the “Odor Threshold” value in data set [1] (Table 10, woody note) is on record as 2.18E−06 μg/l air. For the same compound, in data set [2] (setting [3]), the Type entry is given as “Bottom”. The same compound had a Volatility in data set [2] (Table 10, woody note) of 1.74 μg/l air.
As to “(A) + (+−)-3,5,6,6-tetramethyl-4-methylidene-2-heptanone (B) + (+−)-(4E)-3,4,5,6,6-pentamethyl-4-hepten-2-one (C) + (+−)-(3Z)-3,4,5,6,6-pentamethyl-3-hepten-2-one (D) + (+−)-(3E)-3,4,5,6,6-pentamethyl-3-hepten-2-one (E)”, the “Odor Threshold (μg/l air)” value in data set [1] (Table 7, citrus note) is 7.24E−02 μg/l air. Besides, the “Odor Value” in data set [1] (setting [4]) is on record as 9.11E+03. Further, the “Volatility (μg/l air)” value in data set [2] (Table 7, citrus note) was found to be 659.22 μg/l air. In addition, in data set [2] (setting [8]), the Type result is listed as “Top”.
Take `CC1=C[C@H]2C[C@H](C(C)C)[C@@H]1[C@@H](C1OCCO1)C2` (racemic): the “Odor Threshold (μg/l air)” value in data set [1] (setting [5]) was 1.51E−01 μg/l air. For the same compound, the Type result in data set [2] (setting [9]) is listed as “Bottom”. The “Volatility (μg/l air)” value in data set [2] (setting [5]) was 11.75 μg/l air.
Consider `CCCCCCCCCC(C)C=O` (racemic) [(+−)-2-methylundecanal], for which the “Odor Threshold (μg/l air)” value in data set [1] (Table 4, watery note) is 7.24E−05 μg/l air. In data set [1] (Table 4, watery note, equals volatility divided by odor threshold), the “Odor Value” is 1.04E+06. Besides, in data set [2] (Table 4, watery note), the “Volatility (μg/l air)” value worked out at 75.55 μg/l air. Moreover, the Type result in data set [2] (Table 4, watery note, top, middle or bottom note) was “middle (perfuming compounds having a volatility ranging from 99 to 50 μg/l in air are referred to as “middle notes”)”.
